Tested on: MCH receptors
Assay: MCH receptor activity class (method not given)
Details: MCH receptor; class by percent of control at 10^-7 M or IC50

Q: CN(C)c1cc(N[C@H]2CC[C@@H](CNC(=O)c3cccc(OC(F)(F)F)c3)CC2)nc2ccccc12 [compound 181, N-[(cis-4-{[4-(dimethylamino)quinolin-2-yl]amino}cyclohexyl)methyl]-3-(trifluoromethoxy)benzamide] was tested. Which class did it give?
A: 3 (Class 3 The value of percent of control at 10^−7 M was more than 60% or the value of IC50 was more than 200 nM.)

Q: With CN(C)c1cc(NC2CCC(CNC(=O)OCc3ccccc3)CC2)nc2ccccc12 (centres unmarked) [compound 182] as the compound, how does the class read?
A: 3 (Class 3 The value of percent of control at 10^−7 M was more than 60% or the value of IC50 was more than 200 nM.)

Q: CN(C)c1cc(NC2CCC(CNC(=O)OCc3ccc([N+](=O)[O-])cc3)CC2)nc2ccccc12 (centres unmarked) [compound 183] was tested. Which class did it give?
A: 3 (Class 3 The value of percent of control at 10^−7 M was more than 60% or the value of IC50 was more than 200 nM.)

Q: Which class does the source give for Cc1cc(C(=O)NC[C@H]2CC[C@@H](Nc3cc(N(C)C)c4ccccc4n3)CC2)ccc1Br [compound 184] here?
A: 3 (Class 3 The value of percent of control at 10^−7 M was more than 60% or the value of IC50 was more than 200 nM.)

Q: CN(C)c1cc(N[C@H]2CC[C@@H](CNC(=O)c3cccc(I)c3)CC2)nc2ccccc12 [compound 185, N-[(cis-4-{[4-(dimethylamino)quinolin-2-yl]amino}cyclohexyl)methyl]-3-iodobenzamide] was tested. Which class did it give?
A: 3 (Class 3 The value of percent of control at 10^−7 M was more than 60% or the value of IC50 was more than 200 nM.)

Q: With CN(C)c1cc(N[C@H]2CC[C@@H](CNC(=O)c3cccc(Cl)c3F)CC2)nc2ccccc12 [compound 186] as the compound, how does the class read?
A: 3 (Class 3 The value of percent of control at 10^−7 M was more than 60% or the value of IC50 was more than 200 nM.)

Q: Which class does the source give for Cc1ccc(C(=O)NC[C@H]2CC[C@@H](Nc3cc(N(C)C)c4ccccc4n3)CC2)c(F)c1F [compound 187] here?
A: 3 (Class 3 The value of percent of control at 10^−7 M was more than 60% or the value of IC50 was more than 200 nM.)

Q: With CN(C)c1cc(N[C@H]2CC[C@@H](CNC(=O)c3ccc(F)cc3Cl)CC2)nc2ccccc12 [compound 188] as the compound, how does the class read?
A: 3 (Class 3 The value of percent of control at 10^−7 M was more than 60% or the value of IC50 was more than 200 nM.)

Q: Which class does the source give for CN(C)c1cc(N[C@H]2CC[C@@H](CNC(=O)c3ccc(F)c(Cl)c3F)CC2)nc2ccccc12 [compound 189, 3-chloro-N-[(cis-4-{[4-(dimethylamino)quinolin-2-yl]amino}cyclohexyl)methy]-2,4-difluorobenzamide] here?
A: 3 (Class 3 The value of percent of control at 10^−7 M was more than 60% or the value of IC50 was more than 200 nM.)

Q: With CN(C)c1cc(N[C@H]2CC[C@@H](CNC(=O)CSc3ccccc3)CC2)nc2ccccc12 [compound 190] as the compound, how does the class read?
A: 3 (Class 3 The value of percent of control at 10^−7 M was more than 60% or the value of IC50 was more than 200 nM.)

Q: With CN(C)c1cc(N[C@H]2CC[C@@H](CNC(=O)c3cccc(C(F)(F)F)c3F)CC2)nc2ccccc12 [compound 191] as the compound, how does the class read?
A: 3 (Class 3 The value of percent of control at 10^−7 M was more than 60% or the value of IC50 was more than 200 nM.)

Q: How did the class turn out when CN(C)c1cc(N[C@H]2CC[C@@H](CNC(=O)c3cc(C(F)(F)F)ccc3F)CC2)nc2ccccc12 [compound 192] was run?
A: 3 (Class 3 The value of percent of control at 10^−7 M was more than 60% or the value of IC50 was more than 200 nM.)

Q: Which class does the source give for COc1cccc(CC(=O)NC[C@H]2CC[C@@H](Nc3cc(N(C)C)c4ccccc4n3)CC2)c1 [compound 194] here?
A: 3 (Class 3 The value of percent of control at 10^−7 M was more than 60% or the value of IC50 was more than 200 nM.)

Q: CN(C)c1cc(N[C@H]2CC[C@@H](CNC(=O)Cc3ccc(F)cc3)CC2)nc2ccccc12 [compound 195] was tested. Which class did it give?
A: 3 (Class 3 The value of percent of control at 10^−7 M was more than 60% or the value of IC50 was more than 200 nM.)

Q: How did the class turn out when COc1ccc(CC(=O)NC[C@H]2CC[C@@H](Nc3cc(N(C)C)c4ccccc4n3)CC2)cc1 [compound 196] was run?
A: 3 (Class 3 The value of percent of control at 10^−7 M was more than 60% or the value of IC50 was more than 200 nM.)

Q: Cc1cc(C(=O)NC[C@H]2CC[C@@H](Nc3cc(N(C)C)c4ccccc4n3)CC2)c(C(F)(F)F)o1 [compound 197] was tested. Which class did it give?
A: 3 (Class 3 The value of percent of control at 10^−7 M was more than 60% or the value of IC50 was more than 200 nM.)

Q: Cc1cc(C(=O)NC[C@H]2CC[C@@H](Nc3cc(N(C)C)c4ccccc4n3)CC2)c(C)o1 [compound 198, N-[(cis-4-{[4-(dimethylamino)quinolin-2-yl]amino}cyclohexyl)methyl]-2,5-dimethyl-3-furamide] was tested. Which class did it give?
A: 3 (Class 3 The value of percent of control at 10^−7 M was more than 60% or the value of IC50 was more than 200 nM.)

Q: How did the class turn out when CCOc1ccccc1C(=O)NC[C@H]1CC[C@@H](Nc2cc(N(C)C)c3ccccc3n2)CC1 [compound 199] was run?
A: 3 (Class 3 The value of percent of control at 10^−7 M was more than 60% or the value of IC50 was more than 200 nM.)

Q: For CN(C)c1cc(N[C@H]2CC[C@@H](CNC(=O)c3ccc(F)c(Cl)c3)CC2)nc2ccccc12 [compound 200], which class is on record?
A: 3 (Class 3 The value of percent of control at 10^−7 M was more than 60% or the value of IC50 was more than 200 nM.)

Q: For Cc1ccc(C(=O)NC[C@H]2CC[C@@H](Nc3cc(N(C)C)c4ccccc4n3)CC2)cc1F [compound 201, N-[(cis-4-{[4-(dimethylamino)quinolin-2-yl]amino}cyclohexyl)methyl]-3-fluoro-4-methylbenzamide], which class is on record?
A: 3 (Class 3 The value of percent of control at 10^−7 M was more than 60% or the value of IC50 was more than 200 nM.)

Q: With CN(C)c1cc(N[C@H]2CC[C@@H](CNC(=O)CC3CCCC3)CC2)nc2ccccc12 [compound 202] as the compound, how does the class read?
A: 3 (Class 3 The value of percent of control at 10^−7 M was more than 60% or the value of IC50 was more than 200 nM.)

Q: COc1cc(OC)cc(C(=O)NC[C@H]2CC[C@@H](Nc3cc(N(C)C)c4ccccc4n3)CC2)c1 [compound 203, N-[(cis-4-{[4-(dimethylamino)quinolin-2-yl]amino}cyclohexyl)methyl]-3,5-dimethoxybenzamide] was tested. Which class did it give?
A: 3 (Class 3 The value of percent of control at 10^−7 M was more than 60% or the value of IC50 was more than 200 nM.)

Q: CN(C)c1cc(N[C@H]2CC[C@@H](CNC(=O)c3ccc(C#N)cc3)CC2)nc2ccccc12 [compound 204] was tested. Which class did it give?
A: 3 (Class 3 The value of percent of control at 10^−7 M was more than 60% or the value of IC50 was more than 200 nM.)

Q: How did the class turn out when CN(C)c1cc(N[C@H]2CC[C@@H](CNC(=O)c3cc(C(F)(F)F)cc(C(F)(F)F)c3)CC2)nc2ccccc12 [compound 205, N-[(cis-4-{[4-(dimethylamino)quinolin-2-yl]amino}cyclohexyl)methyl]-3,5-bis(trifluoromethyl)benzamide] was run?
A: 3 (Class 3 The value of percent of control at 10^−7 M was more than 60% or the value of IC50 was more than 200 nM.)

Q: Which class does the source give for CN(C)c1cc(N[C@H]2CC[C@@H](CNC(=O)/C=C/c3ccc([N+](=O)[O-])cc3)CC2)nc2ccccc12 [compound 206] here?
A: 2 (Class 2: The value of percent of control at 10^−7 M was from 40% to 60% or the value of IC′50 was from 50 nM to 200 nM.)

Q: For CN(C)c1cc(N[C@H]2CC[C@@H](CNC(=O)Cc3ccccc3Br)CC2)nc2ccccc12 [compound 207], which class is on record?
A: 3 (Class 3 The value of percent of control at 10^−7 M was more than 60% or the value of IC50 was more than 200 nM.)

Q: With Cc1cc(C(=O)NC[C@H]2CC[C@@H](Nc3cc(N(C)C)c4ccccc4n3)CC2)ccc1F [compound 208, N-[(cis-4-{[4-(dimethylamino)quinolin-2-yl]amino}cyclohexyl)methyl]-4-fluoro-3-methylbenzamide] as the compound, how does the class read?
A: 3 (Class 3 The value of percent of control at 10^−7 M was more than 60% or the value of IC50 was more than 200 nM.)

Q: How did the class turn out when CN(C)c1cc(N[C@H]2CC[C@@H](CNC(=O)c3ccccc3SC(F)F)CC2)nc2ccccc12 [compound 209] was run?
A: 3 (Class 3 The value of percent of control at 10^−7 M was more than 60% or the value of IC50 was more than 200 nM.)

Q: Which class does the source give for CN(C)c1cc(N[C@H]2CC[C@@H](CNC(=O)c3cc(Cl)sc3Cl)CC2)nc2ccccc12 [compound 210] here?
A: 3 (Class 3 The value of percent of control at 10^−7 M was more than 60% or the value of IC50 was more than 200 nM.)

Q: CCCSc1ncccc1C(=O)NC[C@H]1CC[C@@H](Nc2cc(N(C)C)c3ccccc3n2)CC1 [compound 211] was tested. Which class did it give?
A: 3 (Class 3 The value of percent of control at 10^−7 M was more than 60% or the value of IC50 was more than 200 nM.)

Q: How did the class turn out when CN(C)c1cc(N[C@H]2CC[C@@H](CNC(=O)c3cc(C(C)(C)C)nn3Cc3ccccc3)CC2)nc2ccccc12 [compound 212] was run?
A: 3 (Class 3 The value of percent of control at 10^−7 M was more than 60% or the value of IC50 was more than 200 nM.)

Q: CN(C)c1cc(N[C@H]2CC[C@@H](CNC(=O)c3cc(C(C)(C)C)nn3C)CC2)nc2ccccc12 [compound 213] was tested. Which class did it give?
A: 3 (Class 3 The value of percent of control at 10^−7 M was more than 60% or the value of IC50 was more than 200 nM.)

Q: How did the class turn out when C/C(=C\c1ccccc1)C(=O)NC[C@H]1CC[C@@H](Nc2cc(N(C)C)c3ccccc3n2)CC1 [compound 214] was run?
A: 3 (Class 3 The value of percent of control at 10^−7 M was more than 60% or the value of IC50 was more than 200 nM.)

Q: With CN(C)c1cc(N[C@H]2CC[C@@H](CNC(=O)c3cncc(Br)c3)CC2)nc2ccccc12 [compound 215] as the compound, how does the class read?
A: 3 (Class 3 The value of percent of control at 10^−7 M was more than 60% or the value of IC50 was more than 200 nM.)

Same assay, conditions: class by percent of control at 10^-7 M or IC50

Q: With CN(C)c1cc(N[C@H]2CC[C@@H](CNC(=O)Cc3cccc4ccccc34)CC2)nc2ccccc12 [compound 216] as the compound, how does the class read?
A: 3 (Class 3 The value of percent of control at 10^−7 M was more than 60% or the value of IC50 was more than 200 nM.)

Q: How did the class turn out when Cc1cc(C(=O)NC[C@H]2CC[C@@H](Nc3cc(N(C)C)c4ccccc4n3)CC2)nn1C(C)(C)C [compound 217] was run?
A: 3 (Class 3 The value of percent of control at 10^−7 M was more than 60% or the value of IC50 was more than 200 nM.)

Q: Which class does the source give for CN(C)c1cc(N[C@H]2CC[C@@H](CNC(=O)c3csc4ccccc34)CC2)nc2ccccc12 [compound 218] here?
A: 3 (Class 3 The value of percent of control at 10^−7 M was more than 60% or the value of IC50 was more than 200 nM.)

Q: CN(C)c1cc(N[C@H]2CC[C@@H](CNC(=O)c3ccc(-c4ccccc4)cc3)CC2)nc2ccccc12 [compound 219] was tested. Which class did it give?
A: 3 (Class 3 The value of percent of control at 10^−7 M was more than 60% or the value of IC50 was more than 200 nM.)
